Assay results: patent US20190315823A1, “SMALL CATIONIC ANTI-BIOFILM AND IDR PEPTIDES” (priority 2013, published 2019)
Ends that are not written are not given here.

How the values were obtained:
[1] = test system: LPS-stimulated human peripheral blood mononuclear cells (IL1-β); assay type: cell-based; conditions: Table 12, cells stimulated with 10 ng/ml LPS; for IL1β Production: LPS alone 1313 (HH2 derivatives), 1927 (1018 derivatives), 2455 (1002 and hybrid peptides) pg/ml
[2] = test system: human peripheral blood mononuclear cells (MCP-1); experiment: SPOT-synthesized derivative screen: production of chemokine MCP-1; assay type: cell-based; conditions: Table 12, No LPS, human PBMC, peptide at ~18-24 μM; for MCP1: background subtracted 139 (HH2 derivatives), 170 (1018 derivatives), 242 (1002 and hybrid peptides) pg/ml
In short: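 PBMC from heparinized healthy-donor venous blood, Ficoll-separated, cultured at 0.75 to 1×10^6 cells/ml, 37 °C, 5% CO2, under the treatment regimens. MCP-1 in cell-free supernatants measured by capture ELISA.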

[3] = test system: methicillin resistant Staphylococcus aureus (MRSA) biofilm; conditions: approximate peptide concentration […] (around 3 μg/ml); compared to untreated samples
In short: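 Static biofilm assay: 1/100 dilutions of overnight cultures grown in BM2 medium (pH 7, glucose, Casamino Acids) or Luria Broth with peptide added at time zero. After 22–46 h, adherent biofilm was stained with crystal violet and read at 595 nm. Some peptides were also tested on K. pneumoniae under flow in a Bioflux system.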

| Substance | Fold change in IL1β relative to no peptide LPS stimulated cells [1] | IL1β Production [1] [pg/mL] | Fold increase in MCP1 cf. untreated cells [2] | MCP1 [2] [pg/mL] | % Biofilm inhibition [3] [%] |
| --- | --- | --- | --- | --- | --- |
| 1002-W9: single substituted 1002 peptide (VQRWLIVWWIRK-NH2) [Peptide 1002-W9] | 0.05 | 127 | 1.0 | 12.0 | 73 |
| 1002-G4: single substituted 1002 peptide (VQRGLIVWRIRK-NH2) [Peptide 1002-G4] | 0.29 | 723 | 1.1 | 33.0 | 42 |
| HH2-L10: single substituted HH2 peptide (VQLRIRVAVLRA-NH2) | 1.04 | 1359 | 21 | 3338 | 63 |
| 1018-Q12: single substituted 1018 peptide (VRLIVAVRIWRQ-NH2) [Peptide 1018-Q12] | 0.50 | 655 | 0.8 | -28 | 57 |
| HH2-Q9: single substituted HH2 peptide (VQLRIRVAQIRA-NH2) | 1.01 | 1321 | 34 | 5588 | 43 |
| 1018-Q2: single substituted 1018 peptide (VQLIVAVRIWRR-NH2) [Peptide 1018-Q2] | 0.10 | 127 | 3.5 | 422 | 52 |
| 1018-G9: single substituted 1018 peptide (VRLIVAVRGWRR-NH2) [Peptide 1018-G9] | 1.13 | 1481 | 0.9 | -17 | 67 |
| 1002-I1: single substituted 1002 peptide (IQRWLIVWRIRK-NH2) [Peptide 1002-I1] | 0.05 | 127 | 17.7 | 4059.0 | 64 |
| 1002-R6: single substituted 1002 peptide (VQRWLRVWRIRK-NH2) [Peptide 1002-R6] | 0.25 | 605 | 1.0 | 1.8 | 13 |
| 1002-A3: single substituted 1002 peptide (VQAWLIVWRIRK-NH2) [Peptide 1002-A3] | 0.05 | 127 | 4.2 | 787.2 | 65 |
| 1018-G7: single substituted 1018 peptide (VRLIVAGRIWRR-NH2) [Peptide 1018-G7] | 1.23 | 1610 | 25 | 4098 | 47 |
| 1002-V12: single substituted 1002 peptide (VQRWLIVWRIRV-NH2) [Peptide 1002-V12] | 0.05 | 127 | 1.3 | 76.4 | 67 |
| 1018-G3: single substituted 1018 peptide (VRGIVAVRIWRR-NH2) [Peptide 1018-G3] | 0.57 | 748 | 1.5 | 83 | 42 |
| 1018-A11: single substituted 1018 peptide (VRLIVAVRIWAR-NH2) [Peptide 1018-A11] | 0.87 | 1148 | 0.6 | -65 | 59 |
| 1018-V8: single substituted 1018 peptide (VRLIVAVVIWRR-NH2) [Peptide 1018-V8] | 0.35 | 463 | 1.2 | 29 | 34 |
| HH2-I3: single substituted HH2 peptide (VQIRIRVAVIRA-NH2) | 1.02 | 1336 | 6.8 | 982 | 62 |
| HH2-A11: single substituted HH2 peptide (VQLRIRVAVIAA-NH2) | 1.60 | 2105 | 5.9 | 833 | 64 |
| 1002-I9: single substituted 1002 peptide (VQRWLIVWIIRK-NH2) [Peptide 1002-I9] | 0.06 | 158 | 3.5 | 605.9 | 53 |
| 1002-V3: single substituted 1002 peptide (VQVWLIVWRIRK-NH2) [Peptide 1002-V3] | 0.05 | 127 | 2.5 | 359.1 | 49 |
| 1018-L2: single substituted 1018 peptide (VLLIVAVRIWRR-NH2) [Peptide 1018-L2] | 0.32 | 426 | 0.8 | -35 | 61 |
| 1002-Q4: single substituted 1002 peptide (VQRQLIVWRIRK-NH2) [Peptide 1002-Q4] | 0.47 | 1165 | 0.9 | -28.8 | 36 |
| 1018-R4: single substituted 1018 peptide (VRLRVAVRIWRR-NH2) [Peptide 1018-R4] | 0.47 | 615 | 0.6 | -65 | 58 |
| 1018-A10: single substituted 1018 peptide (VRLIVAVRIARR-NH2) [Peptide 1018-A10] | 0.28 | 369 | 1.0 | 7 | 54 |
| 1002-L3: single substituted 1002 peptide (VQLWLIVWRIRK-NH2) [Peptide 1002-L3] | 0.05 | 127 | 1.4 | 106.3 | 59 |
| 1002-K11: single substituted 1002 peptide (VQRWLIVWRIKK-NH2) [Peptide 1002-K11] | 0.05 | 127 | 3.2 | 543.3 | 74 |
| 1018-I2: single substituted 1018 peptide (VILIVAVRIWRR-NH2) [Peptide 1018-I2] | 0.42 | 557 | 44 | 7342 | 61 |
| 1018-V3: single substituted 1018 peptide (VRVIVAVRIWRR-NH2) [Peptide 1018-V3] | 0.22 | 295 | 16 | 2550 | 76 |
| 1018-V2: single substituted 1018 peptide (VVLIVAVRIWRR-NH2) [Peptide 1018-V2] | 0.12 | 159 | 1.3 | 56 | 67 |
| HH2-R8: single substituted HH2 peptide (VQLRIRVRVIRA-NH2) | 0.79 | 1042 | 121 | 1890 | 71 |
| 1002-L2: single substituted 1002 peptide (VLRWLIVWRIRK-NH2) [Peptide 1002-L2] | 0.05 | 127 | 9.1 | 1968.2 | 72 |
